Here are results for 5 compounds from ChEMBL document CHEMBL5154838, “A pH-Dependent rhodamine fluorophore with antiproliferative activity of bladder cancer in Vitro/Vivo and apoptosis mechanism” (Eur J Med Chem, 2022).

A short description of data set [1]: Fluorescence response in PBS solution at pH 3 to 9 assessed as higher sensitivity to fluorescence intensity at 2 uM. Type of data set: physicochemical. Particulars: buffer, pH 3, 2 µM.
Data set [2] relates to EJ. Kind of data set: Antiproliferative activity against human EJ cells assessed as inhibition of colony formation at 8.34 uM measured by colony formation assay. The format is functional, cell-based.
Data set [3] deals with EJ. Kind of data set: Antiproliferative activity against human EJ cells after 24 hrs by CCK-8 assay. Type of data set: functional, cell-based. (In general: Tetrazolium assays rely on reduction of a dye to a coloured formazan, in cell work by metabolically active cells.)
Data set [4] deals with EJ. Kind of data set: Antitumor activity against human EJ cells xenografted in male nude mouse assessed as decrease in Ki-67 expression at 22.35 uM and measured at pH 8.5 by immunohistochemistry analysis. Type of data set: functional, cell-based.
Data set [5] has as its system EJ. Kind of data set: Induction of apoptosis in human EJ cells at 22.35 uM assessed as increase in Bax expression measured by Western blotting assay. The format is functional, cell-based.
For data set [6], the system named is EJ. Kind of data set: Antiproliferative activity against human EJ cells at pH 7.5 assessed as LDH levels at 22.35 uM after 24 hrs relative to control. The format is functional.
In data set [7] the test system is EJ. Kind of data set: Induction of apoptosis in human EJ cells at 22.35 uM assessed as increase in apoptosis rate measured by Annexin V-PE/7-AAD-based flow cytometry assay. Type of data set: functional, cell-based. On the technique in general: Flow cytometry measures light scatter and fluorescence of single cells or particles in a stream.
Data set [8] concerns EJ. The data set is described as follows: Antitumor activity against human EJ cells xenografted in male nude mouse assessed as reduction in tumor weight at 22.35 uM and measured at pH 6.5. The format is functional, cell-based. In general terms: A xenograft is tissue or cells of one species grown in another, often human tumour cells in immunodeficient mice.
Data set [9] relates to EJ. The data set is described as follows: Antitumor activity against human EJ cells xenografted in male nude mouse assessed as increase in cleaved caspase-3 expression at 22.35 uM and measured by Western blotting analysis. The format is functional, cell-based.
For data set [10], the system named is EJ. The data set is described as follows: Antiproliferative activity against human EJ cells assessed as inhibition of colony formation at 22.35 uM measured by colony formation assay. The format is functional, cell-based.
Data set [11] concerns EJ. Kind of data set: Antitumor activity against human EJ cells xenografted in male nude mouse assessed as reduction in tumor volume at 22.35 uM and measured at pH 8.5. Type of data set: functional, cell-based.
The test system of data set [12] is EJ. The data set is described as follows: Antitumor activity against human EJ cells xenografted in male nude mouse assessed as decrease in PCNA expression at 22.35 uM and measured at pH 8.5 by immunohistochemistry analysis. Type of data set: functional, cell-based.
Data set [13] deals with EJ. Kind of data set: Antiproliferative activity against human EJ cells at pH 7.5 assessed as cell viability at 22.35 uM after 24 hrs by CCK-8 assay relative to control. Type of data set: functional. Particulars: read-out: Activity.
In data set [14] the test system is EJ. Kind of data set: Antitumor activity against human EJ cells xenografted in male nude mouse assessed as decrease in PCNA expression at 22.35 uM and measured at pH 7.5 by immunohistochemistry analysis. The format is functional, cell-based.
The test system of data set [15] is EJ. Kind of data set: Antitumor activity against human EJ cells xenografted in male nude mouse assessed as reduction in tumor volume at 22.35 uM and measured at pH 6.5. The format is functional, cell-based.
Data set [16] concerns EJ. Kind of data set: Antitumor activity against human EJ cells xenografted in male nude mouse assessed as decrease in PCNA expression at 22.35 uM and measured at pH 6.5 by immunohistochemistry analysis. Type of data set: functional, cell-based.
The subject of data set [17] is EJ. The data set is described as follows: Antiproliferative activity against human EJ cells at pH 6.5 assessed as LDH levels at 22.35 uM after 24 hrs relative to control. Type of data set: functional.
For data set [18], the system named is EJ. The data set is described as follows: Antitumor activity against human EJ cells xenografted in male nude mouse assessed as reduction in tumor weight at 22.35 uM and measured at pH 8.5. The format is functional, cell-based.
Data set [19] deals with EJ. Kind of data set: Antitumor activity against human EJ cells xenografted in male nude mouse assessed as reduction in tumor volume at 22.35 uM and measured at pH 5.5. The format is functional, cell-based.
Data set [20] concerns EJ. The data set is described as follows: Induction of apoptosis in human EJ cells at 22.35 uM assessed as increase in cleaved caspase-9 expression measured by Western blotting assay. Type of data set: functional, cell-based.
The subject of data set [21] is EJ. Kind of data set: Antitumor activity against human EJ cells xenografted in male nude mouse assessed as increase in cleaved caspase-9 expression at 22.35 uM and measured by Western blotting analysis. The format is functional, cell-based.
For data set [22], the system named is EJ. Kind of data set: Induction of apoptosis in human EJ cells at 22.35 uM assessed as increase in cleaved caspase-3 expression measured by Western blotting assay. Type of data set: functional, cell-based.
The test system of data set [23] is EJ. The data set is described as follows: Antitumor activity against human EJ cells xenografted in male nude mouse assessed as increase in Bax expression at 22.35 uM and measured by Western blotting analysis. The format is functional, cell-based.
The subject of data set [24] is EJ. Kind of data set: Antitumor activity against human EJ cells xenografted in male nude mouse assessed as reduction in tumor weight at 22.35 uM and measured at pH 5.5. The format is functional, cell-based.
Data set [25] concerns EJ. Kind of data set: Antitumor activity against human EJ cells xenografted in male nude mouse assessed as decrease in Ki-67 expression at 22.35 uM and measured at pH 5.5 by immunohistochemistry analysis. The format is functional, cell-based.
In data set [26] the test system is EJ. The data set is described as follows: Antitumor activity against human EJ cells xenografted in male nude mouse assessed as decrease in PCNA expression at 22.35 uM and measured at pH 5.5 by immunohistochemistry analysis. Type of data set: functional, cell-based.
Data set [27] deals with EJ. The data set is described as follows: Antiproliferative activity against human EJ cells at pH 6.5 assessed as cell viability at 22.35 uM after 24 hrs by CCK-8 assay relative to control. Type of data set: functional. Particulars: read-out: Activity.
Data set [28] concerns EJ. The data set is described as follows: Antitumor activity against human EJ cells xenografted in male nude mouse assessed as reduction in tumor volume at 22.35 uM and measured at pH 7.5. The format is functional, cell-based.
For data set [29], the system named is EJ. The data set is described as follows: Antitumor activity against human EJ cells xenografted in male nude mouse assessed as decrease in Ki-67 expression at 22.35 uM and measured at pH 7.5 by immunohistochemistry analysis. Type of data set: functional, cell-based.
A short description of data set [30]: Antiproliferative activity against human SV-HUC-1 cells after 24 hrs by CCK-8 assay. The format is functional, cell-based. To be noted: SV-HUC1, 24 h.
The test system of data set [31] is EJ. Kind of data set: Antitumor activity against human EJ cells xenografted in male nude mouse assessed as decrease in Ki-67 expression at 22.35 uM and measured at pH 6.5 by immunohistochemistry analysis. The format is functional, cell-based.
The subject of data set [32] is EJ. The data set is described as follows: Antitumor activity against human EJ cells xenografted in male nude mouse assessed as reduction in tumor weight at 22.35 uM and measured at pH 7.5. Type of data set: functional, cell-based.

Activity calls are given as the source filed them. The rule behind the calls is not given here.

In general, IC50 refers to the concentration at which inhibition is half-maximal.

Take `CCNc1cc2c(cc1C)C1(c3cc(C)c(NCC)cc3O2)c2ccccc2C(=O)N1C1CCC1`: the outcome in [1] was Active.

Consider `CCNc1cc2c(cc1C)C1(c3cc(C)c(NCC)cc3O2)c2ccccc2C(=O)N1c1ccn([C@@H]2O[C@H](CO)[C@@H](O)C2(F)F)c(=O)n1`, for which the outcome with EJ [2] was Active. Further, the result in data set [1] was Active. Moreover, the IC50 with EJ [3] is 8.34 µM.

As for `CCNc1cc2c(cc1C)C1(c3cc(C)c(NCC)cc3O2)c2ccccc2C(=O)N1Cc1ccccn1`, the result with EJ [4], in the data set on EJ [5], with EJ [7], in the data set on EJ [8], with EJ [9] and in the data set on EJ [10] was Active. For the same compound, the result in the data set on EJ [11], in the data set on EJ [12], in the data set with EJ [14], with EJ [15], with EJ [16] and in the data set on EJ [18] was Active. Besides, the outcome in the data set on EJ [19], with EJ [20], with EJ [21], in the data set with EJ [22], in the data set with EJ [23] and in the data set on EJ [24] was Active. Moreover, the result in the data set with EJ [25], in the data set with EJ [26], in the data set with EJ [28], in the data set on EJ [29], in the data set with EJ [31] and in the data set on EJ [32] was Active. The Activity is listed as 26.4% with EJ [6], “Active” in data set [1] and 42.8% with EJ [17]. Besides, the viability at 22.35 µM with EJ [13] was 83.2%; in the data set on EJ [27], 68.4%. Besides, the results for the IC50 (in the data set with EJ [3]; in data set [30]) were 22.4 µM and 25.6 µM, respectively.

Regarding `CCNc1cc2c(cc1C)C1(c3cc(C)c(NCC)cc3O2)c2ccccc2C(=O)N1CC1CCCO1` (configuration not stated), the result in data set [1] was Active.

`CCNc1cc2c(cc1C)C1(c3cc(C)c(NCC)cc3O2)c2ccccc2C(=O)N1CC1CCOCC1`: the outcome in data set [1] was Active.
